# Measurements taken from patent US11130769B2 (Prelude Therapeutics Incorporated, priority 2018, dated 2021).
# Read-outs that look alike come from different tables or passages of the source.
# Assays:
# MCL-1 = MCL-1 (Homo sapiens (Human), UniProt Q07820); experiment: Cell free Mcl-1:Bim affinity assay (fluorescence polarization competition); assay type: binding; conditions: 15 nM MCL-1, 5 nM FITC-Bim, 1 hour at room temperature, read-out: BIM_Ki
# Description: The binding affinity of each compound was measured via a fluorescence polarization competition assay, in which the compound competes for the same binding site with the ligand, and thus leads to a dose-dependent anisotropy reduction. The tracer ligand utilized was a fluorescein isothiocyanate labelled peptide (FITC-[…]) derived from Bim (GenScript).
# The assay was carried out in black half-area 96-well NBS plate (Corning), containing 15 nM of MCL-1 (BPS Bioscience), 5 nM of FITC-Bim and 3-fold serial diluted test compounds in a total volume of 50 μL of assay buffer (20 mM HEPES, 50 mM NaCl, 0.002% Tween 20, 1 mM TCEP, and 1% DMSO). The reaction plate was incubated for 1 hour at room temperature. The change of anisotropy is measured with an Envision multimode plate reader (PerkinElmer) at emission wavelength 535 nm. Fluorescence polarization was calculated in mP unit and the percentage inhibition was calculated by % inhibition=100×(mPDMSO−mP)/(mPDMSO−mPPC), in which mPDMSO is the DMSO control, and mPpc is the positive control. IC50 values were determined from a 10-point dose response curve by fitting the percent inhibition against compound concentration using the GraphPad Prism software. The inhibition constant Ki was subsequently calculated according to the Nikolovska-Coleska's equation (Anal. Biochem., 2004, 332, 261),
# [formula] • where [I]50 is the concentration of the free inhibitor at 50% inhibition, [L]50 is the concentration of the free labeled ligand at 50% inhibition, [P]0 is the concentration of the free protein at 0% inhibition, and Kd is the dissociation constant of the protein-ligand complex. See Table F. Caspase 3/7 Activity Assay
# H929 cells = experiment: Cell viability assay (H929 10 FBS); assay type: cell-based; conditions: Homo sapiens, NCI-H929, 24 hours, read-out: H929_10FBS IC50
# Description: Cell Viability Assay (H929 10 FBS)
# Dispense 10 μL aliquot of prepared H929 cells (1:1 ratio of cells:Trypan Blue (#1450013, Bio-Rad)) onto cell counting slide (#145-0011, Bio-Rad) and obtain cell density and cell viability using cell counter (TC20, Bio-Rad). Remove appropriate volume of resuspended cells from culture flask to accommodate 4000 cells/well @ 10 μL/well. Transfer H929 cells to 50 mL conical (#430290, Corning). Spin down at 1000 rpm for 5 min using tabletop centrifuge (SPINCHRON 15, Beckman). Discard supernatant and resuspend cell pellet in modified RPMI 1640 (#10-040-CV, Corning) cell culture media containing 10% FBS (F2422-500 ML, Sigma), sodium pyruvate (100 mM) (#25-000-CL, Corning), HEPES buffer (1 M) (#25-060-CL, Corning) and glucose (200 g/L) (A24940-01, Gibco) to a cell density of 400,000 cells/mL. Dispense 10 μL of resuspended H929 cells per well in 384-well small volume TC treated plate (#784080, Greiner Bio-one) using standard cassette (#50950372, Thermo Scientific) on Multi-drop Combi (#5840310, Thermo Scientific) in laminar flow cabinet. Dispense compounds onto plates using digital liquid dispenser (D300E, Tecan). Incubate plates in humidified tissue culture incubator @ 37° C. for 24 hours. Add 10 μL of prepared CellTiTer-Glo® detection buffer (G7570, Promega) or ATPlite 1 Step detection reagent (#6016731, Perkin Elmer) to each well of 384-well plate using small tube cassette (#24073295, Thermo Scientific) on Combi multi drop, incubate @ RT for 30-60 min. Read plates with microplate reader (PheraStar, BMG Labtech) using 384 well luminescence mode.
# Sequence of MCL-1 (Q07820 whole entry): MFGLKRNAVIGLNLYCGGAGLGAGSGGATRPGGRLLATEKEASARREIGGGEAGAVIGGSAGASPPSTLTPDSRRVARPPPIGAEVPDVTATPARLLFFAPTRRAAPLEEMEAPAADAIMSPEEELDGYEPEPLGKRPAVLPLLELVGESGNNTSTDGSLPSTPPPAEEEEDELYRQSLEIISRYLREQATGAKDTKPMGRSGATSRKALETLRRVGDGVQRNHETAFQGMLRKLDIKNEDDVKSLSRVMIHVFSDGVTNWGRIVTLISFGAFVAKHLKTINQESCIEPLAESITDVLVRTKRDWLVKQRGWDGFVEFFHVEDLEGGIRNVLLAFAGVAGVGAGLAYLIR
smiles,measurement,setting,value
"CO[C@H]1/C=C/CNCC2(CCC2)C(=O)NS(=O)(=O)c2ccc3c(c2)N(C[C@H]2CCC21)CC1(CCCc2cc(Cl)ccc21)CO3 (stereo partly drawn) [Example 26, (3R,6R,7R,8E,23S)-6′-Chloro-7-methoxy-13,13-(1,3-propylene)-16,16-dioxo-spiro[21-oxa-16-thia-1,11,15-triazatetracyclo[15.7.2.03,6.020,25]hexacosa[8,17(26),18,20(25)]tetraene-23,1′-tetralin]-14-one]",Ki,MCL-1; class symbols,1 to 100 nM
same,IC50,H929 cells,> 1000 nM
"CCOC1CN(C(=O)O[C@H]2/C=C/COC(C)(C)C(=O)NS(=O)(=O)c3ccc4c(c3)N(C[C@@H]3CC[C@H]32)C[C@@]2(CCCc3cc(Cl)ccc32)CO4)C1 [Example 57, [(3R,6R,7S,8E,22S)-6′-Chloro-12,12-dimethyl-13,15,15-trioxo-spiro[11,20-dioxa-15-thia-1,14-diazatetracyclo[14.7.2.03,6.019,24]pentacosa-8,16,18,24-tetraene-22,1′-tetralin]-7-yl] 3-ethoxyazetidine-1-carboxylate]",Ki,MCL-1; class symbols,< 1 nM
same,IC50,H929 cells,< 500 nM
"CN(C)CCN(C)C(=O)O[C@H]1/C=C/COC(C)(C)C(=O)NS(=O)(=O)c2ccc3c(c2)N(C[C@@H]2CC[C@H]21)C[C@@]1(CCCc2cc(Cl)ccc21)CO3 [Example 55, [(3R,6R,7S,8E,22S)-6′-Chloro-12,12-dimethyl-13,15,15-trioxo-spiro[11,20-dioxa-15-thia-1,14-diazatetracyclo[14.7.2.0˜3,6.0˜19,24]pentacosa-8,16,18,24-tetraene-22,1′-tetralin]-7-yl] N-[2-(dimethylamino)ethyl]-N-methyl-carbamate]",Ki,MCL-1; class symbols,< 1 nM
same,IC50,H929 cells,< 500 nM
"CC1(C)OC/C=C/[C@H](OC(=O)N[C@@H]2CCOC2)[C@@H]2CC[C@H]2CN2C[C@@]3(CCCc4cc(Cl)ccc43)COc3ccc(cc32)S(=O)(=O)NC1=O [Example 62, [(3R,6R,7S,8E,22S)-6′-Chloro-12,12-dimethyl-13,15,15-trioxo-spiro[11,20-dioxa-15-thia-1,14-diazatetracyclo[14.7.2.03,6.019,24]pentacosa-8,16,18,24-tetraene-22,1′-tetralin]-7-yl] N-[(3R)-tetrahydrofuran-3-yl]carbamate]",Ki,MCL-1; class symbols,< 1 nM
same,IC50,H929 cells,< 500 nM
"CN1C(=O)OC[C@@H]2CC[C@H]2CN2C[C@@]3(CCCc4cc(Cl)ccc43)COc3ccc(cc32)S(=O)(=O)NC(=O)N2CC[C@H]1C2 [Example 103, (3R,6R,11S,24S)-6′-Chloro-10-methyl-17,17-dioxo-spiro[8,22-dioxa-17λ^6-thia-1,10,14,16-tetrazapentacyclo[16.7.2.1^11,14.0{circumflex over (°)}3,6.0^21,26]octacosa-18,20,26-triene-24,1′-tetralin]-9,15-dione]",Ki,MCL-1; class symbols,< 1 nM
same,IC50,H929 cells,> 1000 nM
"C[C@@H]1C(=O)NS(=O)(=O)c2ccc3c(c2)N(C[C@@H]2CC[C@H]2[C@@H](O)/C=C/CN1C)C[C@@]1(CCCc2cc(Cl)ccc21)CO3 [Example 144, (3R,6R,7S,8E,12R,22S)-6′-Chloro-7-hydroxy-11,12-dimethyl-15,15-dioxo-spiro[20-oxa-15-thia-1,11,14-triazatetracyclo[14.7.2.03,6.019,24]pentacosa-8,16,18,24-tetraene-22,1′-tetralin]-13-one]",Ki,MCL-1; class symbols,1 to 100 nM
same,IC50,H929 cells,> 1000 nM
"CO[C@@H]1/C=C\CNC(=O)NS(=O)(=O)c2ccc3c(c2)N(C[C@@H]2CC[C@H]21)C[C@@]1(CCCc2cc(Cl)ccc21)CO3 [Example 130, (3R,6R,7R,8Z,21S)-6′-Chloro-7-methoxy-14,14-dioxo-spiro[19-oxa-14-thia-1,11,13-triazatetracyclo[13.7.2.03,6.018,23]tetracosa-8,15,17,23-tetraene-21,1′-tetralin]-12-one]",Ki,MCL-1; class symbols,1 to 100 nM
same,IC50,H929 cells,> 1000 nM
"CC1(C)OC/C=C/[C@H](OC(=O)NCCc2cccnc2)[C@@H]2CC[C@H]2CN2C[C@@]3(CCCc4cc(Cl)ccc43)COc3ccc(cc32)S(=O)(=O)NC1=O [Example 178, [(3R,6R,7S,8E,22S)-6′-Chloro-12,12-dimethyl-13,15,15-trioxo-spiro[11,20-dioxa-15λ^6-thia-1,14-diazatetracyclo[14.7.2.0^3,6.0^19,24]pentacosa-8,16,18,24-tetraene-22,1′-tetralin]-7-yl] N-[2-(3-pyridyl)ethyl]carbamate]",Ki,MCL-1; class symbols,< 1 nM
same,IC50,H929 cells,< 500 nM
CN(C)CCN(C)C(=O)O[C@H]1/C=C/COC(C)(C)C(=O)NS(=O)(=O)c2ccc3c(c2)N(C[C@@H]2CC[C@H]21)C[C@@]1(CCOc2cc(Cl)ccc21)CO3 [Example 307],IC50,H929 cells,< 500 nM
"O=C(NS(=O)(=O)c1ccc2c(c1)N(CC1CCC1)CC1(CCCc3cc(Cl)ccc31)CO2)c1ccc(Cl)cc1 (stereo not shown) [Example 7, 4-Chloro-N-[6′-chloro-5-(cyclobutylmethyl)spiro[2,4-dihydro-1,5-benzoxazepine-3,1′-tetralin]-7-yl]sulfonyl-benzamide]",Ki,MCL-1; numeric values,227 nM
"CO[C@@H]1/C=C/CN(C)C(=O)NS(=O)(=O)c2ccc3c(c2)N(C[C@@H]2CC[C@H]21)C[C@@]1(CCCc2cc(Cl)ccc21)CO3 [Example 108, (3R,6R,7R,8E,21S)-6′-Chloro-7-methoxy-11-methyl-14,14-dioxo-spiro[19-oxa-14-thia-1,11,13-triazatetracyclo[3.7.2.03,6.018,23]tetracosa-8,15,17,23-tetraene-21,1′-tetralin]-12-one]",IC50,H929 cells,> 1000 nM
COC1CN(C(=O)O[C@H]2/C=C/COC(C)(C)C(=O)NS(=O)(=O)c3ccc4c(c3)N(C[C@@H]3CC[C@H]32)C[C@@]2(CCOc3cc(Cl)ccc32)CO4)C1 [Example 309],IC50,H929 cells,< 1000 nM
CCO[C@@H]1CCN(C(=O)O[C@H]2/C=C/COC(C)(C)C(=O)NS(=O)(=O)c3ccc4c(c3)N(C[C@@H]3CC[C@H]32)C[C@@]2(CCOc3cc(Cl)ccc32)CO4)C1 [Example 308],IC50,H929 cells,< 500 nM
CN(C)[C@@H]1CCN(C(=O)O[C@H]2/C=C/COC(C)(C)C(=O)NS(=O)(=O)c3ccc4c(c3)N(C[C@@H]3CC[C@H]32)C[C@@]2(CCOc3cc(Cl)ccc32)CO4)C1 [Example 310],IC50,H929 cells,< 500 nM
CN(C)C1CN(C(=O)O[C@H]2/C=C/COC(C)(C)C(=O)NS(=O)(=O)c3ccc4c(c3)N(C[C@@H]3CC[C@H]32)C[C@@]2(CCOc3cc(Cl)ccc32)CO4)C1 [Example 311],IC50,H929 cells,< 500 nM
CO[C@H]1/C=C/CN2CCC[C@H]2C(=O)NS(=O)(=O)c2ccc3c(c2)N(C[C@@H]2CC[C@H]21)C[C@@]1(CCCc2cc(Cl)ccc21)CO3 [Example 100],IC50,H929 cells,> 1000 nM
"O=C(NS(=O)(=O)c1ccc2c(c1)N(CC1CCC1)C[C@@]1(CCCc3cc(Cl)ccc31)CO2)OCc1ccccc1 (stereo in doubt) [Example 14, Benzyl N-[6′-chloro-5-(cyclobutylmethyl)spiro[2,4-dihydro-1,5-benzoxazepine-3,1′-tetralin]-7-yl]sulfonylcarbamate]",Ki,MCL-1; numeric values,222 nM
CN1C/C=C/[C@H](OC(=O)NC2CC2)[C@@H]2CC[C@H]2CN2C[C@@]3(CCCc4cc(Cl)ccc43)COc3ccc(cc32)S(=O)(=O)NC(=O)C1(C)C [Example 206],IC50,H929 cells,< 500 nM
CCOC(=O)N(C)[C@@H]1/C=C/COC(C)(C)C(=O)NS(=O)(=O)c2ccc3c(c2)N(C[C@@H]2CC[C@H]21)C[C@@]1(CCCc2cc(Cl)ccc21)CO3 [Example 252],IC50,H929 cells,> 1000 nM
CN(C)C[C@H]1CCCN1C(=O)O[C@H]1/C=C/COC(C)(C)C(=O)NS(=O)(=O)c2ccc3c(c2)N(C[C@@H]2CC[C@H]21)C[C@@]1(CCCc2cc(Cl)ccc21)CO3 [Example 169],IC50,H929 cells,< 500 nM
